Where two headings read alike, the source gives them in different places. Starred links: 1 amine or outer side, 2 acyl side, 3 side chain; linkers in the order of their positions; H or OH if unused. Non-standard residues stand in square brackets, D forms with d. Residues, ends and D or L forms follow the SMILES beside them. Groups on a side chain read outwards from the residue. *: point of attachment. C18 diacid = O=C(O)CCCCCCCCCCCCCCCCC(=O)*; γGlu = O=C(O)[C@H](CCC(=O)[*:2])N[*:1]; AEEA = NCCOCCOCC(=O)O; Aib = CC(C)(N)C(=O)O
Key:
CRF1R receptor = target: T1, CRF1R receptor (Homo sapiens, UniProt P34998); test: cAMP activity at anti-target CRF1R, CHO-K1 cell line clone 2 (Example 19.10); assay type: cell-based; conditions: CRF1R CHO-K1 clone 2; for EC50: 0% HSA, read-out: EC50 [nM] 0% HSA; for Emax: 100% = Sauvagine at 100 nM
T1 construct: host or cells: CHO-K1 clone 2
T1 sequence (P34998 24-415): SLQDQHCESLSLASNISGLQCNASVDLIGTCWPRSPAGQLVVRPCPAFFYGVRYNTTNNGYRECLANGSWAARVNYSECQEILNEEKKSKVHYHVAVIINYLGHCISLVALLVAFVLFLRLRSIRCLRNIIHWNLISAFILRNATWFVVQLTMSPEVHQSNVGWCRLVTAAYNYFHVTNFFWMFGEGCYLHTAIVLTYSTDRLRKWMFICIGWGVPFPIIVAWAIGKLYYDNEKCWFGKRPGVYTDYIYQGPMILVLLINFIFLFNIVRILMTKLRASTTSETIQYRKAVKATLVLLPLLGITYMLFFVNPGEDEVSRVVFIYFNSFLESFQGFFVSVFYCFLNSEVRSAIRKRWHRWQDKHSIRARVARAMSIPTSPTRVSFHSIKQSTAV
Summary of the method: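 A CRF1R-overexpressing CHO-K1 line (clone 2) was grown in F12/10% FBS/G418 and frozen in aliquots before use. The cAMP assay followed the preceding procedure, with 100% activation defined by Sauvagine at 100 nM.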

human CRF2α receptor = target: T2, human CRF2α receptor (Homo sapiens, UniProt Q13324); test: cAMP agonism at human CRF2 α receptor in TeloHEAC cells (Example 7); assay type: cell-based; conditions: cAMP HTRF, TeloHEAC cells stably expressing human CRF2 α
T2 construct: expressed in transfected cells; host or cells: TeloHEAC
T2 sequence (Q13324 1-411): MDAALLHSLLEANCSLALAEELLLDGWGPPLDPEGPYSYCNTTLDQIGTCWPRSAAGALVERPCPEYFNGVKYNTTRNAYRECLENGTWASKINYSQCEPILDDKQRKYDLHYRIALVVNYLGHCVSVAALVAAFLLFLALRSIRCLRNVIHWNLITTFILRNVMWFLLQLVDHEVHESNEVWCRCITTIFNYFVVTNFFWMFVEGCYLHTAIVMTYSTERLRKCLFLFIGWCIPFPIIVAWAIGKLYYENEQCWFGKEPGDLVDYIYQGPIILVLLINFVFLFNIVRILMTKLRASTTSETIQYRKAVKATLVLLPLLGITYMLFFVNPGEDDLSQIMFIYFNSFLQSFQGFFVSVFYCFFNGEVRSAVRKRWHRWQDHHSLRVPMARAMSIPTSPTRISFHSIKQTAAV
Summary of the method: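 Steps: thaw and wash cells; suspend in 1×HBSS, 20 mM HEPES, 0 or 0.1% HSA, 2 mM IBMX; add compound, 30 min RT; lyse with HTRF reagents, 1 h; read 665/620 nm. EC50 calculated, E% versus 1000 nM UCN2.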

[1] = 0% HSA, read-out: EC50 [nM], 0% HSA
[2] = 0.1% HSA, read-out: EC50 [nM], 0.1% HSA

Row | Structure (SMILES) | EC50 (CRF1R receptor) [nM] | Emax (CRF1R receptor) [%] | EC50 (human CRF2α receptor; [1]) [nM] | EC50 (human CRF2α receptor; [2]) [nM]
1 | CC[C@H](C)[C@H](N)C(=O)N[C@H](C(=O)N[C@@H](CC(C)C)C(=O)N[C@@H](CO)C(=O)N[C@@H](CC(C)C)C(=O)N[C@@H](CC(=O)O)C(=O)N[C@H](C(=O)N1CCC[C@H]1C(=O)N[C@H](C(=O)N[C@@H](CCCCN)C(=O)N[C@@H](CC(C)C)C(=O)N[C@@H](CCCCNC(=O)COCCOCCNC(=O)COCCOCCNC(=O)CC[C@H](NC(=O)CCCCCCCCCCCCCCCCC(=O)O)C(=O)O)C(=O)N[C@@H](CCC(N)=O)C(=O)N[C@H](C(=O)N[C@@H](CC(C)C)C(=O)N[C@@H](CC(C)C)C(=O)N[C@@H](CCC(=O)O)C(=O)N[C@@H](CCC(N)=O)C(=O)N[C@@H](CCC(=O)O)C(=O)N[C@@H](CCCNC(=N)N)C(=O)N[C@@H](CCC(N)=O)C(=O)N[C@@H](CCCCN)C(=O)NC(C)(C)C(=O)N[C@@H](CCC(N)=O)C(=O)N[C@@H](CCCNC(=N)N)C(=O)N[C@@H](CCC(N)=O)C(=O)N[C@@H](CCC(N)=O)C(=O)N[C@@H](C)C(=O)N[C@@H](CCC(=O)O)C(=O)N[C@H](C(=O)N[C@@H](CC(N)=O)C(=O)N[C@@H](CCCCN)C(=O)N[C@@H](CCC(N)=O)C(=O)N[C@H](C(=O)N[C@@H](CC(C)C)C(=O)N[C@@H](C)C(=O)N[C@@H](CCC(N)=O)C(=O)N[C@H](C(N)=O)C(C)C)[C@@H](C)CC)[C@@H](C)O)[C@@H](C)CC)[C@@H](C)CC)C(C)C)C(C)C [compound 105] (H-IVLSLDVPIKLK([AEEA-AEEA-γGlu-C18 diacid])QILLEQERQK[Aib]QRQQAETNKQILAQV-NH2) | > 100 | 15.4 | 0.41 | 15.3
2 | CC[C@H](C)[C@H](N)C(=O)N[C@H](C(=O)N[C@@H](CC(C)C)C(=O)N[C@@H](CO)C(=O)N[C@@H](CC(C)C)C(=O)N[C@@H](CC(=O)O)C(=O)N[C@H](C(=O)N1CCC[C@H]1C(=O)N[C@H](C(=O)N[C@@H](CCCCN)C(=O)N[C@@H](CC(C)C)C(=O)N[C@@H](CCCCNC(=O)COCCOCCNC(=O)COCCOCCNC(=O)CC[C@H](NC(=O)CCCCCCCCCCCCCCCCC(=O)O)C(=O)O)C(=O)N[C@@H](CCC(N)=O)C(=O)N[C@H](C(=O)N[C@@H](CC(C)C)C(=O)N[C@@H](CC(C)C)C(=O)N[C@@H](CCC(=O)O)C(=O)N[C@@H](CCC(N)=O)C(=O)N[C@@H](CCC(=O)O)C(=O)N[C@@H](CCCNC(=N)N)C(=O)N[C@@H](CCC(N)=O)C(=O)N[C@@H](CCCCN)C(=O)NC(C)(C)C(=O)N[C@@H](CCC(N)=O)C(=O)N[C@@H](CCCNC(=N)N)C(=O)N[C@@H](CCC(=O)O)C(=O)N[C@@H](CCC(N)=O)C(=O)N[C@@H](C)C(=O)N[C@@H](CCC(=O)O)C(=O)N[C@H](C(=O)N[C@@H](CC(N)=O)C(=O)N[C@@H](CCCCN)C(=O)N[C@@H](CCC(N)=O)C(=O)N[C@H](C(=O)N[C@@H](CC(C)C)C(=O)N[C@@H](CCC(=O)O)C(=O)N[C@@H](CCCNC(=N)N)C(=O)N[C@H](C(N)=O)C(C)C)[C@@H](C)CC)[C@@H](C)O)[C@@H](C)CC)[C@@H](C)CC)C(C)C)C(C)C [compound 106] (H-IVLSLDVPIKLK([AEEA-AEEA-γGlu-C18 diacid])QILLEQERQK[Aib]QREQAETNKQILERV-NH2) | > 100 | 5.1 | 0.53 | 13.2
3 | CC[C@H](C)[C@H](N)C(=O)N[C@H](C(=O)N[C@@H](CC(C)C)C(=O)N[C@@H](CO)C(=O)N[C@@H](CC(C)C)C(=O)N[C@@H](CC(=O)O)C(=O)N[C@H](C(=O)N1CCC[C@H]1C(=O)N[C@H](C(=O)N[C@@H](CCCCN)C(=O)N[C@@H](CC(C)C)C(=O)N[C@@H](CCCCNC(=O)COCCOCCNC(=O)COCCOCCNC(=O)CC[C@H](NC(=O)CCCCCCCCCCCCCCCCC(=O)O)C(=O)O)C(=O)N[C@@H](CCC(N)=O)C(=O)N[C@H](C(=O)N[C@@H](CC(C)C)C(=O)N[C@@H](CC(C)C)C(=O)N[C@@H](CCCCN)C(=O)N[C@@H](CCC(N)=O)C(=O)N[C@@H](CCC(=O)O)C(=O)N[C@@H](CCCNC(=N)N)C(=O)N[C@@H](CCC(N)=O)C(=O)N[C@@H](CCCCN)C(=O)NC(C)(C)C(=O)N[C@@H](CCC(N)=O)C(=O)N[C@@H](CCCNC(=N)N)C(=O)N[C@@H](CCC(N)=O)C(=O)N[C@@H](CCCCN)C(=O)N[C@@H](C)C(=O)N[C@@H](CCC(=O)O)C(=O)N[C@H](C(=O)N[C@@H](CC(N)=O)C(=O)N[C@@H](CCCCN)C(=O)N[C@@H](CCC(N)=O)C(=O)N[C@H](C(=O)N[C@@H](CC(C)C)C(=O)N[C@@H](C)C(=O)N[C@@H](CCC(N)=O)C(=O)N[C@H](C(N)=O)C(C)C)[C@@H](C)CC)[C@@H](C)O)[C@@H](C)CC)[C@@H](C)CC)C(C)C)C(C)C [compound 108] (H-IVLSLDVPIKLK([AEEA-AEEA-γGlu-C18 diacid])QILLKQERQK[Aib]QRQKAETNKQILAQV-NH2; N-terminus assumed) | > 100 | -2 | 0.23 | –
4 | CC[C@H](C)[C@H](N)C(=O)N[C@H](C(=O)N[C@@H](CC(C)C)C(=O)N[C@@H](CO)C(=O)N[C@@H](CC(C)C)C(=O)N[C@@H](CC(=O)O)C(=O)N[C@H](C(=O)N1CCC[C@H]1C(=O)N[C@H](C(=O)N[C@@H](CCCCN)C(=O)N[C@@H](CC(C)C)C(=O)N[C@@H](CCCCNC(=O)COCCOCCNC(=O)COCCOCCNC(=O)CC[C@H](NC(=O)CCCCCCCCCCCCCCCCC(=O)O)C(=O)O)C(=O)N[C@@H](CCC(N)=O)C(=O)N[C@H](C(=O)N[C@@H](CC(C)C)C(=O)N[C@@H](CC(C)C)C(=O)N[C@@H](CCCCN)C(=O)N[C@@H](CCC(N)=O)C(=O)N[C@@H](CCC(=O)O)C(=O)N[C@@H](CCCNC(=N)N)C(=O)N[C@@H](CCC(N)=O)C(=O)N[C@@H](CCCCN)C(=O)NC(C)(C)C(=O)N[C@@H](CCC(N)=O)C(=O)N[C@@H](CCCNC(=N)N)C(=O)N[C@@H](CCC(=O)O)C(=O)N[C@@H](CCCCN)C(=O)N[C@@H](C)C(=O)N[C@@H](CCC(=O)O)C(=O)N[C@H](C(=O)N[C@@H](CC(N)=O)C(=O)N[C@@H](CCCCN)C(=O)N[C@@H](CCC(N)=O)C(=O)N[C@H](C(=O)N[C@@H](CC(C)C)C(=O)N[C@@H](C)C(=O)N[C@@H](CCC(N)=O)C(=O)N[C@H](C(N)=O)C(C)C)[C@@H](C)CC)[C@@H](C)O)[C@@H](C)CC)[C@@H](C)CC)C(C)C)C(C)C [compound 109] (H-IVLSLDVPIKLK([AEEA-AEEA-γGlu-C18 diacid])QILLKQERQK[Aib]QREKAETNKQILAQV-NH2) | > 100 | 1.1 | 0.95 | –
5 | CC[C@H](C)[C@H](N)C(=O)N[C@H](C(=O)N[C@@H](CC(C)C)C(=O)N[C@@H](CO)C(=O)N[C@@H](CC(C)C)C(=O)N[C@@H](CC(=O)O)C(=O)N[C@H](C(=O)N1CCC[C@H]1C(=O)N[C@H](C(=O)N[C@@H](CCCCN)C(=O)N[C@@H](CC(C)C)C(=O)N[C@@H](CCCCNC(=O)COCCOCCNC(=O)COCCOCCNC(=O)CC[C@H](NC(=O)CCCCCCCCCCCCCCCCC(=O)O)C(=O)O)C(=O)N[C@@H](CCC(N)=O)C(=O)N[C@H](C(=O)N[C@@H](CC(C)C)C(=O)N[C@@H](CC(C)C)C(=O)N[C@@H](CCCCN)C(=O)N[C@@H](CCC(N)=O)C(=O)N[C@@H](CCC(=O)O)C(=O)N[C@@H](CCCNC(=N)N)C(=O)N[C@@H](CCC(N)=O)C(=O)N[C@@H](CCCCN)C(=O)NC(C)(C)C(=O)N[C@@H](CCC(N)=O)C(=O)N[C@@H](CCCNC(=N)N)C(=O)N[C@@H](CCC(N)=O)C(=O)N[C@@H](CCC(N)=O)C(=O)N[C@@H](C)C(=O)N[C@@H](CCC(=O)O)C(=O)N[C@H](C(=O)N[C@@H](CC(N)=O)C(=O)N[C@@H](CCCCN)C(=O)N[C@@H](CCC(N)=O)C(=O)N[C@H](C(=O)N[C@@H](CC(C)C)C(=O)N[C@@H](C)C(=O)N[C@@H](CCC(N)=O)C(=O)N[C@H](C(N)=O)C(C)C)[C@@H](C)CC)[C@@H](C)O)[C@@H](C)CC)[C@@H](C)CC)C(C)C)C(C)C [compound 110] (H-IVLSLDVPIKLK([AEEA-AEEA-γGlu-C18 diacid])QILLKQERQK[Aib]QRQQAETNKQILAQV-NH2; N-terminus assumed) | > 100 | 5.4 | 0.18 | –

Reference: patent US12679878B2, “CRF2 receptor agonists and their use in therapy” (SANOFI, priority 2020, dated 2026)
